Reference: patent US12281180B2, “Peptoid-peptide macrocycles, pharmaceutical compositions and methods of using the same” (New York University, priority 2018, dated 2025)
Numbered stars: 1 amine (or outer) side, 2 acyl side, 3 side chain; on linkers, the order of the positions; unused ones are H or OH. Square brackets hold non-standard residues; d marks the D form. Peptide text beside a SMILES is read from it. N(2-(2-PhOPh)Et)Gly = O=C(O)CNCCc1ccccc1Oc1ccccc1; Gly(N-3,5-(OMe)2-Ph) = COc1cc(NCC(=O)O)cc(OC)c1; X1 = COc1ccc([C@H](C)N(CC(=O)[*:2])[*:1])cc1; N((CH2)3OiPr)Gly = CC(C)OCCCNCC(=O)O

Columns and labels:
[1] = tested on: Wnt signaling in zebrafish embryos; test: Zebrafish phenotypic assay of Wnt signaling (eye development); type: in vivo
Description: Rescue of eye development in Wnt-activated zebrafish embryos by the hit oligomer macrocycle—To evaluate the efficacy of 13 in vivo, a zebrafish model was utilized. The relevance of the model for our studies is that zebrafish embryos with Wnt activating mutations in the AXIN gene, a component of the β-catenin destruction complex, fail to develop eyes or a forebrain. The phenotype can be recapitulated by treatment with an inhibitor (termed BIO) for another β-catenin destruction complex member, GSK3, in embryos at 6 hours post-fertilization (hpf). It would then be anticipated that 13 inhibits the chemically over-activated Wnt signal, and potentially rescue eye development. To test this compound BIO was added to zebrafish embryos at 6 hpf with and without 13 as described in FIG. 10A.
Zebrafish Experiments The zebrafish phenotypic assay was conducted using wildtype zebrafish embryos seeded into a 96 well round bottom plate in 50 μl of blue zebrafish embryo media. At 50% epiboly, roughly 5.5 hours post fertilization, 50 ul of 30 μM cyclic peptoid compound was added. About 30 minutes later at shield stage, 50 μl 6 nM (3×) BIO was added. The embryos were then visualized for the presence of eyes and imaged at 30 hours post fertilization.

AR signaling = test: 3x-Androgen Response Element (ARE) luciferase reporter assay; type: cell-based; conditions: for IC50: 3xARE LNCaP-abl cells, 48 h compound, read-out: IC50 for inhibition of the AR luciferase reporter
Experimental: (§1) Compound testing and identification of a hit compound—Using a TOP-Flash Wnt luciferase reporter, 12 oligomers identified from in silico modeling for inhibitory activity (FIG. 6A) were tested. At […] concentration, all compounds had some level of Wnt inhibitory activity in cell culture, with varying degrees of efficacy. Also employed was a 3×-Androgen Response Element (ARE) luciferase reporter to measure the effect on AR activity. […] FIG. 2B depicts the predicted structure and contacts of the β-catenin: 13 complex.

[2] = tested on: LNCaP-abl and LNCaP-95 cells; test: RT-qPCR of endogenous Wnt and AR target genes; type: cell-based; conditions: 10 μM, 24 hours
Experimental: These cell lines were derived from androgen-sensitive LNCaP cells, and passaged in androgen-deprived media to mimic the development of castration resistance in patient tumors. mRNA from LNCaP-abl and LNCaP-95 cells treated with DMSO (vehicle) was isolated, 10 μM 13 and linear 13 for 24 hours to check the expression of endogenous Wnt and AR target genes (FIG. 8A). […] AR-V7 is particularly challenging to target as most AR antagonists target the ligand binding domain.
(§2) Cell Culture LNCaP-abl and LNCaP-95 cells were cultured in indicator free RPMI 1640 media (Life) supplemented with 10% charcoal stripped FBS, 1% penn/strep, and 1% L-Glutamine. HEK-293 Cells were cultured in DMEM media (Life) supplemented with 10% FBS and 1% penn/strep. Luciferase assays were conducted using stably transfected TOP-flash and 3×ARE LNCaP-abl cell lines. For the Wnt pathway, TOP-Flash LNCaP-abl cells were treated with siAPC for 24 hours followed by 24 hours treatment with compound. For the AR-pathway, 3×ARE LNCaP-abl cells were treated for 48 hours with compound, with the addition of R1881 for the final 8 hours. Both were measured using the ONE-Glo detection kit (Promega) and reported data is standardized to the cell-titer control values. Co-immunoprecipitation was carried out using HEK293 cells transfected with either myc-TCF (addgene #32738) or myc-TCF dominant negative (addgene #32739) followed by 48 hours of treatment with compound. Cells were lysed using trition lysis buffer and 1 mg total protein was incubated overnight at 4 C with 40 μl anti-cMyc magnetic beads (Thermo). The beads were washed 3× with lysis buffer then boiled in 2× sample loading dye. SDS-PAGE and western blotting were performed using anti-myc (CST 2276) and anti-β-catenin (CST 8480). RT-qPCR was performed using RNA isolated with the RNEasy kit (Qiagen) from LNCaP-abl and LNCaP-95 cells after 24 hour treatment with 10 μM compound. The Verso cDNA synthesis kit (Thermo) with 1 μg total RNA was used, and qPCR data was collected using Fast SYBR Green Master Mix on a QuantiStudio 6 Flex (Life Technologies). 2D proliferation assays were conducted using 384 well plates seeded with 2000 cells/well LNCaP-abl or LNCaP-95 cells. After 5 days of treatment the cell viability was measured with the CellTiter-Fluor Cell Viability Assay (Promega) and data is reported standardized to DMSO control.

Wnt signaling pathway = test: TOP-Flash Wnt luciferase reporter assay; type: cell-based; conditions: for IC50: TOP-Flash LNCaP-abl cells, siAPC 24 h then 24 h compound, read-out: IC50 for Wnt luciferase inhibition
Experimental: The macrocycles were evaluated for their ability to inhibit the Wnt signaling pathway in cell culture. The macrocycles were administered at a concentration of 10 micromolar, and the activity was monitored with a luciferase reporter assay responsive to signaling through the Wnt pathway. […] The macrocycles were also observed to exert minimal cellular toxicity at the 10 micromolar concentration. […] Cells were incubated with 5 μM of peptoid macrocycles prior to co-IP.
as §1

[3] = molecular target: T1, β-catenin:TCF family interaction (Homo sapiens, UniProt P35222); test: Two-hybrid like assay of β-catenin:TCF family member interactions; type: cell-based
T1 sequence (P35222 1-781): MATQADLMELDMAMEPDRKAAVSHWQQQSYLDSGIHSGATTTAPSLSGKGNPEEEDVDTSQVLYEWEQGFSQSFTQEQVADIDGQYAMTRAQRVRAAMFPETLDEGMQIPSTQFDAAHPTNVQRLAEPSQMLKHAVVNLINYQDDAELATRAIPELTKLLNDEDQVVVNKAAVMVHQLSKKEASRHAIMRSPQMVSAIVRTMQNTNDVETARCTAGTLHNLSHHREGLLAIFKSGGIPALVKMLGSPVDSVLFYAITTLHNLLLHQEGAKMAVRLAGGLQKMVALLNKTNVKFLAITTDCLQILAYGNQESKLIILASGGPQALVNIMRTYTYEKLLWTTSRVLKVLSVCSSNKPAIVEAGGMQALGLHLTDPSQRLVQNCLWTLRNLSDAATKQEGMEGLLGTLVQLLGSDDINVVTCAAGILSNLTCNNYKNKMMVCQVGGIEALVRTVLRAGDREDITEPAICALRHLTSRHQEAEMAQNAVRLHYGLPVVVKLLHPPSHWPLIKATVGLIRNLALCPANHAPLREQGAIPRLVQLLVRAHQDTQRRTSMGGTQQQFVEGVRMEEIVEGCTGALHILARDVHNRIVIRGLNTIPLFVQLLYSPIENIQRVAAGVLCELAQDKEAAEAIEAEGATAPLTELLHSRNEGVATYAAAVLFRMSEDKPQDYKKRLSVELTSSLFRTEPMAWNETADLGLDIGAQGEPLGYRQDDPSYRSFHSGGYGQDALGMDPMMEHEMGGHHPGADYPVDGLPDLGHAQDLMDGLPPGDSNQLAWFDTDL

[4] = molecular target: β-catenin:TCF4 interaction (Homo sapiens, UniProt P35222); conditions: read-out: IC50 for inhibition of β-catenin binding to TCF4 N-terminal β-catenin binding domain; 5 nM His6-β-catenin
[5] = molecular target: T2, β-catenin:TCF4 protein interaction (Homo sapiens, UniProt P35222); test: Co-immunoprecipitation of myc-TCF4 and endogenous β-catenin in HEK293 cells; type: cell-based; conditions: 10 μM, 48 hour treatment
T2 construct: endogenous in cells; host or cells: HEK293 (β-catenin endogenous; myc-TCF4 transfected from addgene #32738)
T2 sequence (P35222 2-781 limits assumed): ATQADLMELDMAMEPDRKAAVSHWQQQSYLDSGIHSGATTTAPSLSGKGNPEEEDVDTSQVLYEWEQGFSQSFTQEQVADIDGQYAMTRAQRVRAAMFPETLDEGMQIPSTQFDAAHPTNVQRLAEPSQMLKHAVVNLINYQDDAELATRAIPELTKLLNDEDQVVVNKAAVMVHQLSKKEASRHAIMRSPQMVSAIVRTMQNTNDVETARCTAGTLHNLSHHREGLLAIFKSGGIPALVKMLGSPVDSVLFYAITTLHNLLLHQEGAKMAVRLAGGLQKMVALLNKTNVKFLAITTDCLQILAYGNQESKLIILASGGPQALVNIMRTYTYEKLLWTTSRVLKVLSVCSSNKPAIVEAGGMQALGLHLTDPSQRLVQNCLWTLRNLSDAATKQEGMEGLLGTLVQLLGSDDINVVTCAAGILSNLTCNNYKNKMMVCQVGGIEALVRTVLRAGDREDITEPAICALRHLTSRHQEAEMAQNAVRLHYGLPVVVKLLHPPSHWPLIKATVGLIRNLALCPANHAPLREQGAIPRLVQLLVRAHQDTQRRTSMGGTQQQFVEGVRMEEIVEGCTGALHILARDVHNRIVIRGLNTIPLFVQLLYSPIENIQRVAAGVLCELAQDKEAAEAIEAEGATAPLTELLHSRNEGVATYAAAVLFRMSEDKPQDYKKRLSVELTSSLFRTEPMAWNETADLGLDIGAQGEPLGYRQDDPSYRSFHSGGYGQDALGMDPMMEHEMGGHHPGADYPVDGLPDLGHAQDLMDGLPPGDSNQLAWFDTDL
Experimental: HEK293 cells were transiently transfected with a plasmid expressing full length, myc-tagged TCF4.
as §2, with “The beads were washed 3× with lysis buffer then boiled in 2× sample loading dye. SDS-PAGE and western blotting were performed using anti-myc (CST 2276) and anti-β-catenin (CST 8480). RT-qPCR was performed using RNA isolated with the RNEasy kit (Qiagen) from LNCaP-abl and LNCaP-95 cells after 24 hour treatment with 10 μM compound. The Verso cDNA synthesis kit (Thermo) with 1 μg total RNA was used, and qPCR data was collected using Fast SYBR Green Master Mix on a QuantiStudio 6 Flex (Life Technologies). 2D proliferation assays were conducted using 384 well plates seeded with 2000 cells/well LNCaP-abl or LNCaP-95 cells.” left out

LNCaP-abl spheroids = test: Spheroid 3D cell culture (PrestoBlue viability, spheroid area); type: cell-based
Experimental: The effects on spheroid formation and growth were evaluated following treatment with DMSO, 13, or linear 13 administered at the time of seeding at low cell density in a 384 well plate. In a separate experiment, to test the impact on pre-formed spheroids, cells were treated five days after initial seeding. Spheroids from both experiments were grown for 22 days, with compound refreshed on days 5, 9, 13, 16, and 20. […] PrestoBlue was used to measure cell viability on day 22 (FIG. 9B). […] FIG. 9C-F depicts spheroid area over time based on size measurements from the images taken throughout the experiment.
Spheroid 3D Cell Culture LNCaP-abl cells were seeded into 384 well ultra-low attachment plates (Corning), 1000 cells/well. Varying concentrations of compound were added either on the same day as seeding or on day 5. Media was changed every 3-4 days using a Biotek automated media exchanger. Images were taken using an ArraySca VTI (Thermo) on days 5, 9, 13, 16, 20, and 22. A final viability measurement was taken on day 22 using PrestoBlue reagent (Thermo).

[6] = molecular target: T3, E-cadherin:β-catenin interaction (Homo sapiens, UniProt P35222); test: Two-hybrid like assay, E-cadherin with β-catenin; type: cell-based
T3 sequence (P35222 1-781): T1 sequence (P35222 1-781)

[7] = 3 additional independent experiments, each
[8] = first experiment, eight fish, BIO added at 6 hpf with or without 13

Question: Which “Fish that developed eyes” value [1, 7] does the source give for `O=C1Nc2cc(Br)ccc2/C1=C1/Nc2ccccc2/C1=N\O` [BIO, reference compound] here?
Answer: 0/8

Question: What about the “Fish that developed eyes” value [1, 8] of the same molecule?
Answer: one of the eight fish

Question: For `COc1ccc([C@H](C)N2CC(=O)N[C@H](C)C(=O)N(CCc3ccccc3Oc3ccccc3)CC(=O)N(c3cc(OC)cc(OC)c3)CC(=O)N(CCCOC(C)C)CC(=O)N([C@@H](C)c3ccc(OC)cc3)CC2=O)cc1` [Compound 13] (cyclo([dA][N(2-(2-PhOPh)Et)Gly][Gly(N-3,5-(OMe)2-Ph)][N((CH2)3OiPr)Gly][X1][X1])), which “Inhibition of AR signaling, 3x-ARE luciferase reporter” value (AR signaling) is on record?
Answer: more effective

Question: What about the IC50 (AR signaling) of the same molecule?
Answer: 1.02 µM

Question: What about the “AR mRNA” value [2] of the same molecule?
Answer: decreased

Question: And the “Cyclin D1 mRNA” value [2]?
Answer: decreased

Question: And the “FKBP5 mRNA” value [2]?
Answer: decreased

Question: And the “PSA mRNA” value [2]?
Answer: decreased

Question: And the “Transcription of AR splice variant AR-V7” value [2]?
Answer: decreased

Question: What about the “Transcription of E-cadherin” value [2] of the same molecule?
Answer: increased

Question: What about the “cMYC mRNA” value [2] of the same molecule?
Answer: decreased

Question: And the “Wnt inhibitory activity, TOP-Flash Wnt luciferase reporter” value (Wnt signaling pathway; 10 µM concentration, cell culture)?
Answer: more effective

Question: And the IC50 (Wnt signaling pathway)?
Answer: 0.105 µM

Question: What about the “Fish that developed eyes” value [1, 7] of the same molecule?
Answer: 8/8

Question: What about the “Fish that developed eyes” value [1, 8] of the same molecule?
Answer: all the fish

Question: And the “Inhibition of TCF family interaction with β-catenin” value [3]?
Answer: inhibits

Question: What about the IC50 [4] of the same molecule?
Answer: 5.44 µM

Question: And the “β-catenin:TCF interaction by co-immunoprecipitation, compared to DMSO” value [5]?
Answer: decreased

Question: And the “Spheroid growth / area over time” value (LNCaP-abl spheroids; 0.5 μM, added on day 0)?
Answer: slowed the growth

Question: What about the “Spheroid formation / area over time” value (LNCaP-abl spheroids; 20 μM, 10 μM, 5 μM, 2 μM and 1 μM, added on day 0 with seeding) of the same molecule?
Answer: prevented spheroid formation

Question: And the “Growth of preformed spheroids / area over time” value (LNCaP-abl spheroids; at or above 2 μM, treatment started at day 5)?
Answer: stalled the growth of preformed spheroids

Question: What about the “Spheroid growth / area over time” value (LNCaP-abl spheroids; between 0.001 µM and 0.1 μM) of the same molecule?
Answer: little effect

Question: And the “Inhibition of E-cadherin interaction with β-catenin” value [6]?
Answer: not

Question: How did the IC50 (AR signaling) turn out when “NH2-D-Ala-N-mpp, N-dmp, N-ipp, N-Smpe, N-Smpe-OH [linear 13]” was run?
Answer: 7.63 µM

Question: What about the IC50 (Wnt signaling pathway) of the same molecule?
Answer: 3.27 µM
